Like-named read-outs stand apart in the source and are kept apart here.
Columns and labels:
[1] = system: Scopolamine Induced Memory Deficit (mice); settings: mouse, in vivo, sc
[2] = biological target: Brain AChE (acetylcholinesterase, rat striatum) (Rattus norvegicus, UniProt P37136); experiment: biochemical; parameters: species or system rat (male Wistar)
Sequence of Brain AChE (acetylcholinesterase, rat striatum) (P37136 32-614): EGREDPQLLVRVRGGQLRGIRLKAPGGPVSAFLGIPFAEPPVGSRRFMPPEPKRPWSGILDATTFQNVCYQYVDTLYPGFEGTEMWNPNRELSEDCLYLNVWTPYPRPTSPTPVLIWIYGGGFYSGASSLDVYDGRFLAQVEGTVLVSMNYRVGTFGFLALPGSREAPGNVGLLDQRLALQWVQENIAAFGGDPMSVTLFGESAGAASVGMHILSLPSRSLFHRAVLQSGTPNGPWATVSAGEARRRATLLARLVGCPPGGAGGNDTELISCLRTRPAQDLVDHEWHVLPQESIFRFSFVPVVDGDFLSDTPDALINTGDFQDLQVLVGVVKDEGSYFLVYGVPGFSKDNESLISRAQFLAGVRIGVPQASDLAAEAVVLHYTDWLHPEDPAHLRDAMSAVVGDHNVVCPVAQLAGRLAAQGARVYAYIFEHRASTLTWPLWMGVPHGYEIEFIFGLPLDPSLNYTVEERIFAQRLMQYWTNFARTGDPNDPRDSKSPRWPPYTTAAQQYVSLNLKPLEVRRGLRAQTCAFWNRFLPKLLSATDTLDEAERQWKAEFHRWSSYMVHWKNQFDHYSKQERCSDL

| Structure (SMILES) | % of Animals with Scopolamine Induced Memory Deficit Reversal ([1]; 0.1 mg/kg) [%] | % of Animals with Scopolamine Induced Memory Deficit Reversal ([1]; 0.3 mg/kg) [%] | IC50 [2] [µM] |
| --- | --- | --- | --- |
| CCNC(=O)Oc1cnccc1N=CN(C)C [4-[[(Dimethylamino)methylene]amino]-3-pyridinol ethylcarbamate] | 20.0 | 21.4 | 9.37 |
| CNC(=O)Oc1cnccc1N=CN(C)C [4-[[(Dimethylamino)methylene]amino]-3-pyridinol methylcarbamate] |  |  | 12.6 |

— patent US5821239A (priority 1996, dated 1998)
